Where a SMILES comes first, the peptide text is derived from it. [ ]: non-standard residue; d: D form. The star is where a group is joined. Oct7ynoyl(2R-Me) = C#CCCCC[C@@H](C)C(=O)*; NMeF = CN[C@@H](Cc1ccccc1)C(=O)O; NMeI = CC[C@H](C)[C@H](NC)C(=O)O; NMeV = CN[C@H](C(=O)O)C(C)C; NMeA = CN[C@@H](C)C(=O)O
How the values were obtained:
[1] = tested on: A549; assay: Cytotoxicity against human A549 cells after 48 hrs by alamar blue assay; format: functional, cell-based; settings: A549, 48 h
[2] = tested on: HT-29; assay: Cytotoxicity against human HT-29 cells after 48 hrs by alamar blue assay; format: functional, cell-based; settings: HT-29, 48 h
[3] = tested on: HeLa; assay: Cytotoxicity against human HeLa cells after 48 hrs by alamar blue assay; format: functional, cell-based
[4] = tested on: MDA-MB-231; assay: Cytotoxicity against human MDA-MB-231 cells after 48 hrs by alamar blue assay; format: functional, cell-based; settings: MDA-MB-231, 48 h
[5] = Cytotoxicity against human PC3 cells after 48 hrs by alamar blue assay; format: functional, cell-based; settings: PC-3, 48 h
[6] = tested on: Artemia; assay: Cytotoxicity against brine shrimps larvae assessed as mortality after 48 hrs; format: organism-based; settings: in vivo

C#CCCCC[C@@H](C)C(=O)N(C)[C@H](C(=O)N(C)[C@H](C(=O)N[C@H](C(=O)N(C)[C@@H](C)C(=O)N(C)[C@@H](Cc1ccccc1)C(N)=O)C(C)C)C(C)C)C(C)C [ALMIRAMIDE B] ({Oct7ynoyl(2R-Me)}-[NMeV][NMeV]V[NMeA][NMeF]-NH2)
IC50 [1]: 76 µM
IC50 [2]: 100 µM
IC50 [3]: 53 µM
IC50 [4]: 13 µM
IC50 [5]: 107 µM

C#CCCCC[C@@H](C)C(=O)N(C)[C@H](C(=O)N(C)[C@H](C(=O)N[C@H](C(=O)N(C)[C@H](C(=O)N[C@@H](C)C(N)=O)[C@@H](C)CC)[C@@H](C)CC)C(C)C)C(C)C ({Oct7ynoyl(2R-Me)}-[NMeV][NMeV]I[NMeI]A-NH2)
IC50 [1]: 59 µM
IC50 [2]: 91 µM
IC50 [3]: 17 µM
IC50 [4]: 821 µM
IC50 [5]: 62 µM

COc1cccc2c1C(=O)c1c(O)c3c(c(O)c1C2=O)C[C@@](O)(C(=O)CO)C[C@@H]3O[C@H]1C[C@H](N)[C@H](O)[C@H](C)O1 [DOXORUBICIN]
IC50 [1]: 14 µM
IC50 [5]: 17 µM
Activity [6]: Non-toxic

— ChEMBL document CHEMBL3351572, “Almiramide D, cytotoxic peptide from the marine cyanobacterium Oscillatoria nigroviridis” (Bioorg Med Chem, 2014)
